“And” between values parts separate entries of the source, which are not always exact repeats. Equal values may be shown once. Read-outs that look alike come from different tables or passages of the source.
Columns and labels:
17β-HSD10 [1] = details: cited from earlier work; for Inhibition at 1 µM (%) Ayan et al. 2012: 1 µM steroid, different (cellular) assay, ref Ayan et al. 2012 (ref 18)
17β-HSD10 [2] = system: 17β-HSD10; design: method as in PMID 30297283; details: in vitro, recombinant enzyme, cited from earlier work
17β-HSD10 [3] = target: T1, 17β-HSD10 (Homo sapiens, UniProt Q99714); test: Inhibition of 17β-estradiol to estrone transformation by purified recombinant 17β-HSD10 (NADH fluorescence); format: biochemical; details: for IC50: purified recombinant 17β-HSD10, 17β-estradiol as substrate, means ± SEM (n = 4); for inhibition at 1 µM: read-out: Inhibition at 1 µM (%) (this study); for inhibition at 10 µM: read-out: Inhibition at 10 µM (%) (this study)
T1 construct: inferred from Ni-NTA purification with imidazole elution; made in house; host or cells: E. coli BL21 (DE3)
T1 sequence (Q99714 1-261): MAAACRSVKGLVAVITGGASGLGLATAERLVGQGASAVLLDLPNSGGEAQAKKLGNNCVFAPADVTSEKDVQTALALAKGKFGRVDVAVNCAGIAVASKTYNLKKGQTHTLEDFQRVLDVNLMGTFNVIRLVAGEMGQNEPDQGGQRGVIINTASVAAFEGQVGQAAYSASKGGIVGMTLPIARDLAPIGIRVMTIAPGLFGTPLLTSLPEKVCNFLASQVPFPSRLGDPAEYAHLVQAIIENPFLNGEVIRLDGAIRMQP
Description: As standards, we used the known inhibitor AG18051 as the positive control and the published steroidal compounds,[18] namely, pregnenolone, testosterone, dihydrotestosterone, androsterone, epiandrosterone, and dehydroepiandrosterone.
17β-HSD10 was performed as described previously.[11] Briefly, the autoinduction and overexpression were performed at 25 °C for 18 h in the E. coli BL21 (DE3) strain. The bacterial pellet was resuspended in lysis buffer that consisted of sodium phosphate buffer ([…]), NaCl (150 mM), and imidazole (10 mM, pH 8.0) with 1 mg/mL lysozyme and benzonase (150 U/mL). cOmplete EDTA-free protease inhibitor cocktail was incubated for 20 min on ice and then sonicated (12 × 10 s pulses with 30 s pauses). The supernatant was applied to the Ni-NTA agarose resin after centrifugation (16 000g, 10 min, 4 °C). Then, the solution was incubated on ice for 1 h with gentle stirring.
The standard steroids were screened at 1 and 10 μM concentrations, and the tested compounds and standard AG18051 were screened at 10 μM concentration. For compounds with at least 50% inhibition of 17β-HSD10, the IC50 values were determined.
Steroid stock solutions (5 mM) were further diluted with DMSO to the working concentrations. DMSO was used as a vehicle control, and AG18051 was used as a control inhibitor. The enzyme activity was determined fluorometrically at 37 °C in the activity assay buffer [100 mM potassium phosphate buffer (pH 8.0)]. The general reaction mixture (200 μL per well) consisted of 17β-estradiol (25 μM, DMSO), NAD+ (500 μM, deionized water), recombinant 17β-HSD10 (45 nM), and different concentrations of inhibitor (2.2% (v/v) final concentration of DMSO as solvent). Before the addition of substrate, the reaction mixture of enzyme, cofactor, and inhibitor in the assay buffer was preincubated for 5 min at 37 °C. The increase of fluorescence (Ex/Em = 340/460 nm) due to the formation of NADH was monitored for 20 min (30 s intervals). For IC50 value determination, dose–response inhibition at 11 different concentrations of inhibitor (0.6–33.75 μM) was determined and the data were analyzed by GraphPad Prism 8.4.3 (GraphPad Software Inc.). All measurements were performed in a tetraplicate.

Caco-2 cells = system: Caco-2 cells; design: method as in PMID 30296546; details: cited from earlier work
[4] = design: method as in PMID 30296546; details: cited from earlier work
[5] = design: method as in PMID 30296546; details: cited from earlier work; remark: listed apart in the source
17β-HSD10 [6] = system: 17β-HSD10; design: method as in PMID 37458164; details: 17β-HSD10 inhibition, literature value; cited from earlier work
HEK-293 cell line = system: HEK-293 cell line; design: method as in PMID 37458164; details: cited from earlier work
[7] = 10 μM compound, 17β-estradiol as substrate, means ± SD (n = 4)

SMILES	IC50 (17β-HSD10 [3])	Caco-2 cell permeability (50 μM) Papp (Caco-2 cells)	rat plasma stability, % remaining after 8 h [4] [%]	human plasma stability, % remaining after 8 h [5] [%]	inhibition at 1 µM (17β-HSD10 [3]) [%]	inhibition at 10 µM (17β-HSD10 [3]) [%]	Inhibition at 1 µM (%) Ayan et al. 2012 (17β-HSD10 [1]) [%]	further results
COc1cccc(CN2CCN(C[C@@]3(O)CC[C@@]4(C)[C@@H](CC[C@@H]5[C@@H]4CC[C@]4(C)C(=O)CC[C@@H]54)C3)CC2)c1 [RM-532-46, (3α,5α,17α)-3-Hydroxy-3-[4-(3-methoxybenzyl)piperazin-1-yl]methylandrostan-17-one]								IC50 (17β-HSD10 [1]; cellular assay using HEK-293 cells): 0.55 µM; IC50 (17β-HSD10 [2]; 17β-estradiol, read-out: IC50 using 17β-estradiol as substrate): 610 µM; IC50 (17β-HSD10 [2]; allopregnanolone, read-out: IC50 using allopregnanolone as substrate): 235 µM
C[C@@]12CCC[C@H]1[C@@H]1CC=C3C[C@@H](OC(=O)CCCC(=O)O)CC[C@]3(C)[C@H]1CC2 [Compound 22, Androst-5-en-3β-yl Hemiglutarate]	~6.95 µM and 6.95 µM	1.2 × 10^–5 cm/s	57	98				
C[C@]12CCC(=O)C[C@@H]1CC[C@@H]1[C@@H]2CC[C@]2(C)[C@@H](O)CC[C@@H]12 [dihydrotestosterone]					0	6.3 ± 2	15 ± 0.8	
C[C@]12CC[C@H](O)CC1=CC[C@@H]1[C@@H]2CC[C@]2(C)C(=O)CC[C@@H]12 [dehydroepiandrosterone]					5.4 ± 3.7	6.6 ± 3.5	0.0 ± 3.2	
C[C@]12CC[C@H]3[C@@H](CCC4=CC(=O)CC[C@@]43C)[C@@H]1CC[C@@H]2O [testosterone]					10.3 ± 5.1	15.7 ± 3.8	0.0 ± 3.2	
CC[C@H]1CC[C@H]2[C@@H]3CC=C4C[C@@H](OC(=O)CCCC(=O)O)CC[C@]4(C)[C@H]3CC[C@]12C [Compound 15, Pregn-5-en-3β-yl Hemiglutarate]	9.01 ± 0.43 µM	1.9 × 10^–6 cm/s	99	100				
O=C(C(c1ccccc1)n1cnc2[nH]ncc2c1=S)N1CCCCCC1 (stereo not shown) [AG18051, 1-azepan-1-yl-2-phenyl-2-(4-thioxo-1,4-dihydropyrazolo [3–d]pyrimidin-5-yl)-ethanone]								IC50 (17β-HSD10 [6]): 0.09 ± 0.01 µM
C[C@@]12CCC[C@H]1[C@@H]1CC=C3C[C@@H](OC(=O)CCCCCC(=O)O)CC[C@]3(C)[C@H]1CC2 [Compound 24, Androst-5-en-3β-yl Hemipimelate]	7.17 ± 0.4 µM	1.3 × 10^–6 cm/s	38	100				
CC(=O)C1CCC2C3CC=C4CC(O)CCC4(C)C3CCC12C (stereo not shown) [pregnenolone]							11 ± 2.6	inhibition at 1 µM (17β-HSD10 [3]; 1 µM steroid, 17β-estradiol as substrate, means ± SD (n = 4)): 0%; inhibition at 10 µM (17β-HSD10 [3]; [7]): 5.9 ± 0.8%
CC(=O)[C@H]1CC[C@H]2[C@@H]3CCC4=C[C@@H](O)CC[C@]4(C)[C@H]3CC[C@]12C [Compound 26]								toxicity for HEK-293 cell line (HEK-293 cell line): toxic
C[C@@]12CCC[C@H]1[C@@H]1CC=C3C[C@@H](OC(=O)CCC(=O)O)CC[C@]3(C)[C@H]1CC2 [Compound 21, Androst-5-en-3β-yl Hemisuccinate]	7.33 ± 0.45 µM	1.0 × 10^–4 cm/s	88	99				
CC[C@H]1CC[C@H]2[C@@H]3CC=C4C[C@@H](OC(=O)CCCCC(=O)O)CC[C@]4(C)[C@H]3CC[C@]12C [Compound 16, Pregn-5-en-3β-yl Hemiadipate]	9.29 ± 0.28 µM	1.2 × 10^–6 cm/s	43	94				
CC(=O)[C@H]1CC[C@H]2[C@@H]3CC=C4C[C@@H](OC(=O)CCCC(=O)O)CC[C@]4(C)[C@H]3CC[C@]12C [Compound 10, 20-Oxo-pregn-5-en-3β-yl Hemiglutarate]	16.9 ± 1.33 µM							inhibition at 10 µM (17β-HSD10 [3]; [7]): ~50%
CC[C@H]1CC[C@H]2[C@@H]3CC=C4C[C@@H](OC(=O)CCC(=O)O)CC[C@]4(C)[C@H]3CC[C@]12C [Compound 14, Pregn-5-en-3β-yl Hemisuccinate]	9.94 ± 0.23 µM	5.7 × 10^–6 cm/s	55	100				
C[C@]12CC[C@@H](O)C[C@@H]1CC[C@@H]1[C@@H]2CC[C@]2(C)C(=O)CC[C@@H]12 [androsterone]					3.2 ± 2.2	0	7.0 ± 5.9	
C[C@]12CC[C@H](O)C[C@@H]1CC[C@@H]1[C@@H]2CC[C@]2(C)C(=O)CC[C@@H]12 [epi-androsterone, epiandrosterone]					2 ± 4.9	7 ± 2.5	6.0 ± 1.0	
